Bridge positions count the residues as written; N and C are the ends. Ends that are not written are not given here.
System: premature newborn rabbits
Assay: Surfactant preparations in ventilated premature newborn rabbits without PEEP (model of RDS): lung gas volumes and tidal volumes
Type: in vivo, rabbit
Conditions: no PEEP; for lung gas volumes (median): reconstituted surfactant, 2% w/w of each named peptide in DPPC:POPG 68:31 w/w, 80 mg/ml, 2.5 ml/kg at birth, FIG. 3
Method: The surfactant preparations were assayed in premature newborn rabbits, obtained by hysterectomy at the gestational age of 27 days. The experiments were performed without applying a positive end expiratory pressure (PEEP). As the SP-C analog, the polypeptide referred to as SP-C33 was used which was prepared according to Example 1. As the analog of the protein SP-B, oxidized Mini-B (ox Mini-B) was used which was prepared according to Example 2.
The animals were treated at birth with reconstituted surfactant preparations containing, as lipid carrier, the phospholipid mixture DPPC:POPG in the ratio 68:31 w/w. The phospholipids were mixed with 2 or 4% w/w SPC-33, 2% w/w ox Mini-B, or 2% w/w SPC-33 plus 2% w/w ox Mini-B. Animals receiving the same dose of Curosurf® served as positive controls, and non-treated littermates served as negative controls. All surfactant preparations were administered at a concentration of 80 mg/ml and at a standard dose of 2.5 ml/kg.
The immature newborn rabbits were ventilated in parallel with a standardized sequence of peak insufflation pressures. To open up the lungs, pressure was first set at 35 cmH2O for 1 minute. After this recruitment manoeuvre, pressure was lowered to 25 cmH2O for 15 minutes and further on to 20 and 15 cm H2O. Finally, the pressure was raised again to 25 cmH2O for 5 minutes, after which the lungs were ventilated for additional 5 minutes with nitrogen and then excised for gas volume measurements. Both lung gas volumes and tidal volumes expressed as ml/kg were measured, and the results, given as median values, are reported in FIGS. 3 and 4, respectively.

IPSSPVHLKRLKLLLLLLLLILLLILGALLMGL [SP-C33]
lung gas volumes, effect of increasing SP-C33 content (SP-C33 content raised from 2 to 4% w/w in DPPC:POPG 68:31): did not increase lung gas volumes
lung gas volumes (median): about 4 ml/kg

CWLCRALIKRIQAMIPKGGRMLPQLVCRLVLRCS (disulfide 1-33, 4-27) [ox Mini-B, SP-B analog]
lung gas volumes (median): about 2 ml/kg

Reference: US8183210B2, “Reconstituted surfactants having improved properties” (Chiesi Farmaceutici S.p.A., priority 2006, dated 2012)
